19 molecules from PubChem BioAssay AID248 (DTP/NCI, 2004) can be followed below.

Inconclusive results and toxic doses are left out.

The assay relates to L1210 leukemia ip in BDF1 mice, survival T/C. Kind of assay: NCI In Vivo Anticancer Drug Screen. Data for tumor model L1210 Leukemia (intraperitoneal) in B6D2F1 (BDF1) mice. The conditions noted are these: endpoint: mean survival time, higher = longer survival. An outline of the steps: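 Transplantable tumor model; survival measured in treated vs vehicle control mice. Value = treated/control.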

The mark [1] stands for this setting: dose: 50.0 mg/kg/injection, schedule: Q01DX009 (ip), vehicle: saline with Tween-80.
Setting [2] is: dose: 100.0 mg/kg/injection, schedule: Q01DX009 (ip), vehicle: saline with Tween-80.
The mark [3] stands for this setting: dose: 200.0 mg/kg/injection, schedule: Q01DX009 (ip), vehicle: saline with Tween-80.
[4] abbreviates: dose: 400.0 mg/kg/injection, schedule: Q01DX009 (ip), vehicle: saline with Tween-80.
Where [5] appears, read: dose: 100.0 mg/kg/injection, schedule: Q04DX003 (ip), vehicle: saline with Tween-80.
Where [6] appears, read: dose: 200.0 mg/kg/injection, schedule: Q04DX003 (ip), vehicle: saline with Tween-80.
Setting [7] is: dose: 400.0 mg/kg/injection, schedule: Q04DX003 (ip), vehicle: saline with Tween-80.
[8] abbreviates: dose: 75.0 mg/kg/injection, schedule: Q01DX001 (ip), vehicle: carboxymethylcellulose (CMC).
Where [9] appears, read: dose: 100.0 mg/kg/injection, schedule: Q01DX001 (ip), vehicle: saline.

Consider `CC1=C/C(=N\N2CCCCCC2)C(C(O)(C(F)(F)F)C(F)(F)F)C(C)(C)C1` (centres undefined), for which the T/C runs as follows: under setting [1], 90 % of control; under setting [2], 96 % of control; under setting [3], 86 % of control; under setting [4], 88 % of control.
Regarding `CC(=O)CC(=O)CC(O)(C(F)(F)F)C(F)(F)F`, the T/C under setting [2] is 96 % of control.
As to `CC/C(=N\N=C(N)N)c1ccc(NC(=S)Nc2ccccc2)cc1`, the T/C was 101 % of control (dose: 20.0 mg/kg/injection, schedule: Q01DX009 (ip), vehicle: saline); 101 % of control (dose: 40.0 mg/kg/injection, schedule: Q01DX009 (ip), vehicle: saline); 107 % of control (dose: 80.0 mg/kg/injection, schedule: Q01DX009 (ip), vehicle: saline).
For the molecule `COc1cc(C(C)=O)cc([N+](=O)[O-])c1O`, the T/C reads like this: under setting [5], 107 % of control; under setting [6], 105 % of control.
With `Cc1ccc(NC(=S)Nc2ccc(C(C)C)cc2)c(C)c1`, the T/C is 118 % of control (dose: 100.0 mg/kg/injection, schedule: Q04DX002 (ip), vehicle: Klucel (hydroxypropylcellulose) (HPC)); 103 % of control (dose: 200.0 mg/kg/injection, schedule: Q04DX002 (ip), vehicle: Klucel (hydroxypropylcellulose) (HPC)); 100 % of control (dose: 400.0 mg/kg/injection, schedule: Q04DX002 (ip), vehicle: Klucel (hydroxypropylcellulose) (HPC)).
With `CC(CNC(=O)CCBr)NC(=O)CCBr` (centres undefined), the T/C is 103 % of control (dose: 50.0 mg/kg/injection, schedule: Q01DX Z (ip), vehicle: carboxymethylcellulose (CMC)); 100 % of control (dose: 170.0 mg/kg/injection, schedule: Q01DX Z (ip), vehicle: carboxymethylcellulose (CMC)); 153 % of control (dose: 200.0 mg/kg/injection, schedule: Q01DX009 (ip), vehicle: saline); 178 % of control (dose: 400.0 mg/kg/injection, schedule: Q01DX009 (ip), vehicle: saline).
`CC(=O)CC(=O)N1CCCCCC1`: the T/C is 93 % of control (dose: 100.0 mg/kg/injection, schedule: Q01DX009 (ip), vehicle: gum acacia); 98 % of control under setting [5]; 98 % of control (dose: 200.0 mg/kg/injection, schedule: Q01DX009 (ip), vehicle: gum acacia); 95 % of control under setting [6]; 101 % of control (dose: 400.0 mg/kg/injection, schedule: Q01DX009 (ip), vehicle: gum acacia); 102 % of control under setting [7].
Consider `[Br][Hg][c]1ccccc1`, for which the T/C under setting [8] was 108 % of control.
Turning to `c1ccc2c(c1)C1CCC2c2ccccc21`, the T/C runs as follows: under setting [2], 106 % of control; under setting [5], 95 % of control; under setting [3], 102 % of control; under setting [6], 98 % of control; under setting [4], 97 % of control; under setting [7], 92 % of control.
As for `O=C1CC(=O)N(c2ccccc2)C(=O)N1`, the T/C under setting [1] was 99 % of control, the T/C under setting [2] is 99 % of control and the T/C under setting [3] is 99 % of control.
On to `CC(=O)Nc1ccc(Cc2ccc(NC(C)=O)cc2)cc1`, for which the T/C was 93 % of control (dose: 75.0 mg/kg/injection, schedule: Q01DX001 (ip), vehicle: Klucel (hydroxypropylcellulose) (HPC)); 101 % of control under setting [5]; 100 % of control (dose: 150.0 mg/kg/injection, schedule: Q01DX001 (ip), vehicle: Klucel (hydroxypropylcellulose) (HPC)); 93 % of control under setting [6]; 98 % of control (dose: 300.0 mg/kg/injection, schedule: Q01DX001 (ip), vehicle: Klucel (hydroxypropylcellulose) (HPC)); 97 % of control under setting [7].
Regarding `Nc1ccc(CC(=O)O)cc1`, the T/C reads like this: (dose: 100.0 mg/kg/injection, schedule: Q01DX001 (ip), vehicle: Klucel (hydroxypropylcellulose) (HPC)) 97 % of control; (dose: 200.0 mg/kg/injection, schedule: Q01DX001 (ip), vehicle: Klucel (hydroxypropylcellulose) (HPC)) 101 % of control; (dose: 400.0 mg/kg/injection, schedule: Q01DX001 (ip), vehicle: Klucel (hydroxypropylcellulose) (HPC)) 88 % of control.
For the molecule `COC(=O)c1ccc(C)cn1`, the T/C under setting [9] is 100 % of control.
With `C1CCC2C[N-]CCC2C1.C1CCC2C[N-]CCC2C1.C1CCC2C[N-]CCC2C1.C1CCC2C[N-]CCC2C1.[Cl][Rh][Cl]` (centres undefined), the T/C is 101 % of control (dose: 0.5 mg/kg/injection, schedule: Q01DX009 (ip), vehicle: Klucel (hydroxypropylcellulose) (HPC)); 108 % of control (dose: 1.0 mg/kg/injection, schedule: Q01DX009 (ip), vehicle: Klucel (hydroxypropylcellulose) (HPC)); 110 % of control (dose: 2.0 mg/kg/injection, schedule: Q01DX009 (ip), vehicle: Klucel (hydroxypropylcellulose) (HPC)); 92 % of control (dose: 2.0 mg/kg/injection, schedule: Q01DX009 (ip), vehicle: citric acid); 105 % of control (dose: 3.12 mg/kg/injection, schedule: Q01DX009 (ip), vehicle: saline with Tween-80); 105 % of control (dose: 3.12 mg/kg/injection, schedule: Q04DX003 (ip), vehicle: saline with Tween-80). For the same molecule, the T/C was 103 % of control (dose: 4.0 mg/kg/injection, schedule: Q01DX009 (ip), vehicle: Klucel (hydroxypropylcellulose) (HPC)) and 108 % of control (dose: 6.25 mg/kg/injection, schedule: Q04DX003 (ip), vehicle: saline with Tween-80).
For the molecule `Cn1c(=O)c2[nH]c(C3CC=CCC3)nc2n(C)c1=O` (centres undefined), the T/C (dose: 50.0 mg/kg/injection, schedule: Q01DX001 (ip), vehicle: other) was 97 % of control; the T/C (dose: 100.0 mg/kg/injection, schedule: Q01DX001 (ip), vehicle: other) was 95 % of control; the T/C (dose: 400.0 mg/kg/injection, schedule: Q01DX001 (ip), vehicle: other) was 94 % of control.
Consider `CC(C)(C)NS(=O)(=O)c1ccc(Cl)c([N+](=O)[O-])c1`, for which the T/C was 95 % of control (dose: 100.0 mg/kg/injection, schedule: Q04DX003 (ip), vehicle: Klucel (hydroxypropylcellulose) (HPC)); 93 % of control (dose: 200.0 mg/kg/injection, schedule: Q04DX003 (ip), vehicle: Klucel (hydroxypropylcellulose) (HPC)); 90 % of control (dose: 400.0 mg/kg/injection, schedule: Q04DX003 (ip), vehicle: Klucel (hydroxypropylcellulose) (HPC)).
As to `CCOC1C=CC(O)C(CO)O1` (centres undefined), the T/C is 101 % of control under setting [9]; 98 % of control (dose: 200.0 mg/kg/injection, schedule: Q01DX001 (ip), vehicle: saline); 95 % of control (dose: 400.0 mg/kg/injection, schedule: Q01DX001 (ip), vehicle: saline).
For the molecule `NC(CC(=O)CCl)C(=O)O` (centres undefined), the T/C is 107 % of control (dose: 9.4 mg/kg/injection, schedule: Q01DX009 (ip), vehicle: saline); 102 % of control (dose: 18.8 mg/kg/injection, schedule: Q01DX009 (ip), vehicle: saline); 121 % of control (dose: 22.0 mg/kg/injection, schedule: Q04DX003 (ip), vehicle: saline); 121 % of control under setting [8]; 88 % of control (dose: 75.0 mg/kg/injection, schedule: Q01DX009 (ip), vehicle: carboxymethylcellulose (CMC)); 109 % of control (dose: 150.0 mg/kg/injection, schedule: Q01DX001 (ip), vehicle: carboxymethylcellulose (CMC)).
In the case of `CN=C(NC)NN`, the T/C (dose: 30.0 mg/kg/injection, schedule: Q01DX Z (ip), vehicle: methylcellulose (MC)) is 100 % of control; the T/C (dose: 60.0 mg/kg/injection, schedule: Q01DX Z (ip), vehicle: methylcellulose (MC)) was 103 % of control; the T/C (dose: 100.0 mg/kg/injection, schedule: Q04DX002 (ip), vehicle: saline with Tween-80) was 95 % of control; the T/C (dose: 125.0 mg/kg/injection, schedule: Q01DX Z (oral), vehicle: methylcellulose (MC)) is 101 % of control; the T/C (dose: 200.0 mg/kg/injection, schedule: Q04DX002 (ip), vehicle: saline with Tween-80) was 95 % of control; the T/C (dose: 240.0 mg/kg/injection, schedule: Q01DX Z (ip), vehicle: methylcellulose (MC)) is 108 % of control. Besides, the T/C runs as follows: (dose: 250.0 mg/kg/injection, schedule: Q01DX Z (oral), vehicle: methylcellulose (MC)) 95 % of control; (dose: 270.0 mg/kg/injection, schedule: Q01DX Z (ip), vehicle: saline) 105 % of control; (dose: 375.0 mg/kg/injection, schedule: Q01DX Z (ip), vehicle: methylcellulose (MC)) 110 % of control; (dose: 400.0 mg/kg/injection, schedule: Q04DX002 (ip), vehicle: saline with Tween-80) 100 % of control; (dose: 405.0 mg/kg/injection, schedule: Q01DX Z (ip), vehicle: saline) 97 % of control; (dose: 480.0 mg/kg/injection, schedule: Q01DX Z (ip), vehicle: methylcellulose (MC)) 102 % of control. Also, where the note is “dose: 609.0 mg/kg/injection, schedule: Q01DX Z (ip), vehicle: saline”, the T/C was 103 % of control.
